Read-outs that look alike come from different tables or passages of the source.
Key:
NF-κB [1] = experiment: EMSA of NF-κB DNA-binding activity in TPA-stimulated Jurkat T cells; type: cell-based, Human; details: Jurkat T cells treated 1 hour, then TPA 25 ng/ml, extracts after 3 hours; FIGS. 1(b)-6(b)
Method: Methods: Human lymphoblastoid Jurkat T cells were grown at 37° C. in a 5% CO2 atmosphere in RPM1 1640 medium (GIBCO BRL, Gaithersburg, Md.) supplemented with 10% fetal calf serum (FCS, Hyclone Europe Ltd, UK) 2 mM glutamine and antibiotics according to the method described by A. Rossi et al. (Proc. Natl. Acad. Sci. USA 94: 746-750, 1997). The test compounds were stored as a 100% ethanolic stock solution (100 mM) or in DMSO (100 mM) and diluted to the appropriate concentration in culture medium at the time of use. Cells were treated with different concentrations of test compound for 1 hour and then stimulated with 12-O-tetradecanoylphorbol-13-acetate (TPA, 25 ng/ml), which is a strong inducer of NF-κB. Control cells received an equal amount of control diluent. After 3 hours whole-cell extracts were prepared and subjected to analysis of DNA-binding activity by EMSA (Electrophoretic Mobility Shift Assay) for detection of HSF or NF-κB activation, according to the method described by A. Rossi et al. (Proc. Natl. Acad. Sci. USA 94: 746-750, 1997).
Specificity of protein-DNA complexes was verified by immunoreactivity with polyclonal antibodies specific for p65 (Rel A) or for HSF-1, for NF-κB and HSF respectively. Quantitative evaluation of NF-κB and HSF-DNA complex formation was determined by Molecular Dynamics Phosphorimager (MDP) analysis and was expressed in arbitrary units, as described in A. Rossi et al. (J. Biol. Chem. 273: 16446-16452, 1998). The results from representative experiments are shown in FIGS. 1(b), 2(b), 3(b), 4(b), 5 and 6(b) for compounds CTM-50, CTM-49, CTM-36, CTM-30, CTC-130 and CTC-109, as identified above.

HSF1 = details: concentration of 125-500 μM; cited from earlier work
uninfected 37RC cells [2] = details: monkey
NF-κB [3] = details: same concentration (125-500 μM); cited from earlier work
Sendai virus = Sendai virus replication in 37RC cells (virus yield by HAU titration); type: cell-based; details: Respirovirus muris, 5 HAU/10^5 cells, virus yield at 24 hours after infection, read-out: ID50 (50% inhibitory dose/concentration), Sendai virus yield
NF-κB [4] = experiment: Luciferase activity of G418-resistant HeLa cell pool transfected with NF-κB-LUC after stimulation; type: cell-based; details: NF-κB-LUC (STM vector), quadruplicate samples, control 1369±149
From the text: (§1) The fragment Kpn I-BamH I from the pGL3 basic vector containing the luciferase gene (PROMEGA) was inserted in the pcDNA3 vector (INVITROGEN) digested with Bgl II-KpnI. (This digestion removes the CMV-promoter from pcDNA3.) The resulting new vector was digested with Kpn I-Hind III and a promoter containing a ‘5xNF-κB binding sites—TATA box’ sequence was inserted upstream of the luciferase gene. This vector has been named STM.
(§2) To obtain stable HeLa cell lines expressing the luciferase gene under the control of NF-κB, HeLa cells were transfected (using lipofectamine plus GIBCO) with the STM-Pvu I linearized vector, and selected for 20 days with G418 (800 μg/ml). After selection, the resistant HeLa cell pool was controlled (in quadruplicate samples) for luciferase activity after stimulation with TNFα, IL-1 and TPA.

NF-κB [5] = experiment: NF-κB-dependent luciferase reporter gene assay, HeLa κB-transformed cells, TPA stimulated; type: cell-based; details: 8 h treatment, TPA 25 ng/ml 2 h after exposure, read-out: NF-κB, IC50 (concentration at which the compound halved the NF-κB activity)
Method: (§3) Method: HeLa cell clone 13B, stably transfected with a luciferase reporter plasmid controlled by the human hsp70 promoter, and HeLa κB-transformed cells, stably transfected with a luciferase reporter plasmid controlled by a synthetic NF-κB-STM construct, were maintained in DMEM medium supplemented with 10% FBS, L-glutamine (2 mM) and G418 (250 μg/ml) at 37° C. in a 5% CO2 humidified atmosphere.
(§4) Cells were seeded at a density of 4×10^4 cells/well in 96-well plates. After 18-20 h, the medium was removed and cells were treated for 8 h with the test compounds (100 μl) at the appropriate dilutions in serum-free medium. For the NF-κB-dependent reporter gene assay, cells were stimulated with TPA (25 ng/ml) 2 h after exposure to the compounds.
(§5) After incubation, the medium was removed and cells were lysed in 10 μl of lysis buffer. The luciferase activity was determined by adding 100 μl of substrate and measuring the release of light using a Victor 1420 microplate reader (Wallac, Finland).
as §1, §2
(§6) The AC200/μM for HSF is the concentration at which the tested compound doubled the HSF activity in this assay. The IC50/μM for NF-κB is the concentration at which the tested compound halved the NF-κB activity in this assay.

37RC cells = experiment: in vitro; type: cell-based; details: 24 h treatment, read-out: LC50 (50% lethal dose/concentration), Neutral Red
Method: (§7) Cell viability was determined using the Neutral Red assay. 37RC cells were seeded at density of 6×10^4 cells/well in 24-well plates and incubated for 24 h. Confluent 37RC monolayers were treated with the test compounds at different dilutions for 24 h at 37° C. After incubation, the medium was removed and the cells were incubated with RPMI medium containing 40 μg/ml Neutral Red dye (500 μl/well). After 2 h at 37° C., the monolayers were washed with phosphate-buffered saline (PBS) and then with a solution containing 1% CaCl2 and 0.5% formaldehyde. After washing, a solution containing 1% acetic acid/50% ethanol was added to the monolayers (250 μl/well). After 10 min at room temperature, the absorbance was determined with a microplate reader (Victor 1420, Wallac) at 540 nm.

uninfected 37RC cells [6] = experiment: Toxicity to uninfected cells, determined visually by microscopy (TD100)
HSF = HSF luciferase reporter assay, HeLa cell clone 13B (human hsp70 promoter); type: cell-based; details: 8 h, HeLa clone 13B, 8 h treatment, serum-free medium, read-out: HSF, AC200 (concentration at which the compound doubled the HSF activity)
Method: as §3, §4, §5, §6

in vitro = type: cell-based; details: 37RC cells, 24 h treatment; read-out: LC50 (50% lethal dose/concentration), Neutral Red
Method: as §7

[7] = Alamar Blue cytotoxicity assay; type: cell-based; details: human
Method: HeLa cells were plated in 96-well microtiter plates in 100 μl culture medium (4×10^4/well). After 20 hours, the cells were exposed to the test compounds at different dilutions and incubated for the next 8 h at 37° C. in a 5% CO2 humidified atmosphere. After 6 h incubation, the Alamar Blue was added in an amount equal to 10% of the culture volume (10 μl). Two hours after the addition of the Alamar Blue, the fluorescence was measured using a Victor 1420 microplate reader.
The LC50/μM is the concentration at which the tested compound killed half the cells in this assay.

[8] = doses from 30 μg/kg/min; cited from earlier work

IC50 (Sendai virus; 24 h)	Compound	NF-κB-DNA complex formation (EMSA), result in words (NF-κB [1])	TD100 (dose or concentration at which the compound was 100% toxic to uninfected cells) (uninfected 37RC cells [2])	IC50 (Sendai virus)	EC (2-fold) (HSF)	IC50 (NF-κB [5]; Homo sapiens, HeLa)	CC50 at 24 h (in vitro)	also measured
	COC(=O)[C@H](CSC1C=C(C(SC[C@H](NC(=O)OC(C)(C)C)C(=O)OC)C(C)C)C(=O)C1)NC(=O)OC(C)(C)C (stereo partly shown) [CTC-130]	inhibitors of NF-κB						
	O=C1C=CCC1 [CTC-1, cyclopent-2-en-1-one, reference compound]		>500 µM	90 µM				HSF1 activation, result in words (HSF1): able to activate HSF1; block of NF-κB activation by chemical or physiological inducers, result in words (NF-κB [3]): able to block NF-κB activation
	CCCCCCCCCCCCCC(=O)O[C@@H]1[C@@H](C)[C@@]2(O)[C@@H](C=C(CO)C[C@]3(O)C(=O)C(C)=C[C@@H]23)[C@@H]2C(C)(C)[C@]12OC(C)=O [TPA, 12-O-tetradecanoylphorbol-13-acetate]							luciferase activity (NF-κB [4]): 7181±444
	TNFα							luciferase activity (NF-κB [4]): 6111±1231
3 µM	COC(=O)[C@H](CSC1C=CC(=O)C1)NC(=O)OC(C)(C)C (stereo partly shown) [CTC-109]	inhibitors of NF-κB	500 µM					
	CC(C)(C)C(=O)O[C@H]1[C@H](Sc2ccc3ccccc3c2)CC(=O)C1(C)C (stereo in doubt) [CTM-192, 2,2-dimethylpropionic acid (1R,5R)-2,2-dimethyl-5-(naphthalen-2-ylsulfanyl)-3-oxocyclopentyl ester]		50 µM					IC50 (NF-κB [5]): 28 µM; CC50 (37RC cells): 22 µM
	COC(=O)[C@H](CSC1CC(=O)C[C@@H]1O[Si](C)(C)C(C)(C)C)NC(=O)OC(C)(C)C (stereo partly shown) [CTM-36]	inhibitors of NF-κB		4 µM				TD100 (dose or concentration at which the compound was 100% toxic to uninfected cells) (uninfected 37RC cells [6]): >500 µM
10 µM	COC(=O)[C@H](CSC1=CC(=O)CC1)NC(=O)OC(C)(C)C [CTM-50]	inhibitors of NF-κB	>500 µM					
3 µM	CC(C)(C)C(=O)OC1[C@H](Sc2ccc3ccccc3c2)CC(=O)C1(C)C (stereo in doubt) [CTM-193, 2,2-dimethylpropionic acid (1S,5R)-2,2-dimethyl-5-(naphthalen-2-ylsulfanyl)-3-oxocyclopentyl ester]		50 µM		26 µM	32 µM	23 µM	
	CCOC(=O)[C@H](CS[C@H]1CC(=O)C[C@@H]1O[Si](C)(C)C(C)(C)C)NC(C)=O [CTM-131]			10 µM	70 µM	> 100 µM	125 µM	CC50 at 8 h [7]: > 800 µM; TD100 (dose or concentration at which the compound was 100% toxic to uninfected cells) (uninfected 37RC cells [6]): 50 µM
	Cc1cc(C)n(CCS[C@H]2CC(=O)C[C@@H]2O[Si](C)(C)C(C)(C)C)n1 [CTM-109]			4 µM	29 µM	> 100 µM	33 µM	CC50 at 8 h [7]: 267 µM; TD100 (dose or concentration at which the compound was 100% toxic to uninfected cells) (uninfected 37RC cells [6]): 50 µM
	CC(C)(C)[Si](C)(C)O[C@H]1CC(=O)C[C@@H]1Sc1ccc(F)cc1 [CTM-108]			4 µM	13 µM	> 100 µM	29 µM	CC50 at 8 h [7]: > 800 µM; TD100 (dose or concentration at which the compound was 100% toxic to uninfected cells) (uninfected 37RC cells [6]): 50 µM
20 µM	COC(=O)[C@H](CSC1CCC(=O)C1)NC(=O)OC(C)(C)C (stereo partly shown) [CTM-49]	inhibitors of NF-κB	>500 µM					
4 µM	CC(C)(C)C(=O)OC1[C@@H](Sc2ccc3ccccc3c2)CC(=O)C1(C)C (stereo in doubt) [CTM-191, 2,2-dimethylpropionic acid (1R,5S)-2,2-dimethyl-5-(naphthalen-2-ylsulfanyl)-3-oxocyclopentyl ester]		50 µM		18 µM	25 µM	24 µM	
	CCCCC[C@H](O)/C=C/[C@H]1C=CC(=O)[C@@H]1CCCCCCC(=O)O [Prostaglandin A1]							effect on blood pressure [8]: dose-dependant falls in blood pressure
	CCCCC[C@H](O)/C=C/[C@H]1[C@H](O)CC(=O)[C@@H]1CCCCCCC(=O)O [Prostaglandin E1]							effect on blood pressure [8]: dose-dependant falls in blood pressure
